Experimental data from patent US20120316105A1, “Polymyxin Derivates Useful As Antibacterial Agents” (priority 2011, published 2012).
Read-outs that look alike come from different tables or passages of the source. Bridge positions count the residues as written; N and C are the ends. Square brackets hold non-standard residues; d marks the D form. Peptide text beside a SMILES is read from it. * marks the point of attachment. X30 = O=C(c1ccc(Cl)c(-c2ccccc2)c1)*; X3 = O=C(c1ccnc(-c2cccc(Cl)c2)c1)*; X32 = N#Cc1cc(C(=O)*)ccc1-c1ccccc1; X35 = N#Cc1ccc(C(=O)*)cc1-c1ccccc1; 2Naphthoyl = O=C(c1ccc2ccccc2c1)*; X31 = O=C(c1ccnc(-c2ccccc2Cl)c1)*; X5 = O=C(c1ccnc(-c2cccc(F)c2)c1)*; X12 = O=C(c1cccc(-c2ccccc2F)c1)*; X7 = O=C(c1ccnc(-c2ccccc2F)c1)*; Dab = NCC[C@H](N)C(=O)O; Dap = NC[C@H](N)C(=O)O

How the values were obtained:
[1] = tested on: PA-1646, polymyxin-resistant clinical isolate of Pseudomonas aeruginosa; type: cell-based; conditions: PA-1646, polymyxin-resistant clinical isolate of
Method: (§1) Minimum bactericidal concentration (MBC, mg/L), minimum inhibitory concentration (MIC, mg/L), and human renal proximal tubule epithelial cell line cytotoxicity concentration 50% (hRPTEC, TC50, micromolar) for compounds of Formula I are listed in Table 2. The compounds of Formula I were tested as the corresponding trifluoroacetate salt except for Example 1 which was tested as the sulfate salt. For Table 2 below: PMB=polymyxin B as the sulfate salt (Bedford Laboratories, pharmaceutical grade); PMB1=polymyxin B1 as the trifluoroacetate salt; Nona=polymyxin B nonapeptide as the trifluoroacetate salt. PMB1 and Nona were prepared using the solid phase methodology described in the experimental section herein.
(§2) The in vitro antibacterial activity of compounds of Formula I was evaluated by MIC testing according to Clinical and Laboratory Standards Institute (CLSI). See: Clinical and Laboratory Standards Institute. Methods for Dilution Antimicrobial Susceptibility Tests for Bacteria that Grow Aerobically; Approved Standard-Eighth Edition. CLSI document M7-A8 [ISBN 1-56238-689-1]. Clinical and Laboratory Standards Institute, 940 West Valley Road, Suite 1400, Wayne, Pa. 19087-1898 USA, 2006; also Clinical and Laboratory Standards Institute. Performance Standards for Antimicrobial Susceptibility Testing; Twentieth Informational Supplement. CLSI document M100-S20 [ISBN 1-56238-716-2]. Clinical and Laboratory Standards Institute. Methods for Determining Bactericidal Activity of Antimicrobial Agents; Approved Guideline. CLSI document M26-A (ISBN 1-56238-384-1). CLSI, 940 West Valley Road, Suite 1400, Wayne, Pa. 19087-1898 USA, 1999.
PA-1646 is a polymyxin-resistant clinical isolate of Pseudomonas aeruginosa obtained from JMI labs (www.jmilabs.com);

[2] = Cytotoxicity assay (LDH release), hRPTEC; type: cell-based, human; conditions: human
Method: as §1
Human Renal Proximal Tubule Epithelial cells (hRPTEC) were obtained from Lonza (Walkersville, Md., USA) and cultured in REGM (Renal Epithelial Cell Basal Medium supplemented with human epithelial growth factor, hydrocortisone, epinephrine, insulin, triiodothyronine, transferrin, gentamycin/amphotericin-B, and fetal bovine serum). The hRPTEC cells were seeded into 96-well plates and incubated at 37° C. in 5% CO2. Following a growth period of 72 hours, cells were treated with compounds at 100, 67, 44, 30, 20 and 13 micromolar for 24 hours at 37° C. in 5% CO2. The cell supernatant was then harvested for determination of LDH (lactate dehydrogenase) production. The Cytotoxicity Detection Kit from Roche was used for the measurement of LDH activity released from damaged cells. The Toxic Concentration 50% (TC50, micromolar) values were determined for each compound and compared to the control compounds (polymyxin B was used as a positive control and polymyxin B nonapepetide was used as negative control).

[3] = tested on: Pseudomonas aeruginosa strain PA01; type: cell-based; conditions: strain
Method: as §1, §2
(§3) The MIC determination is a standard laboratory method for evaluating the antibacterial activity of a compound. The MIC represents the lowest drug concentration that inhibits visible growth of bacteria following overnight incubation. […] Typically, the drug concentration range is broken down into 2-fold increments (e.g. 0.06 mg/L, 0.12 mg/L, 0.25 mg/L, 0.50 mg/L, 1.0 mg/L, etc.) and the various drug concentrations are all individually incubated overnight with approximately the same number of bacteria. The MIC is then determined by visually inspecting the drug effect at each concentration, and identifying the lowest drug concentration that has inhibited bacterial growth as compared to the drug free control. Typically, bacteria continue to grow at drug concentrations lower than the MIC and don't grow at concentrations at and above the MIC.
(§4) The MIC values described in Table 2 below were derived from assays wherein each test compound was evaluated in duplicate. In cases where the duplicate values varied by 0-2-fold, the lower of the two values was reported below. Generally speaking, if the duplicate values varied by more than 2-fold, the assay was considered non-valid and was repeated until the variation between duplicate runs was ≦2-fold. In line with the CLSI guidelines referred to above, both control organisms and reference compounds were utilized in each MIC assay to provide proper quality control. MIC values generated with these control organisms and reference compounds were required to fall within a defined range for the assay to be considered valid and be included herein. Those skilled in the art will recognize that MIC values can and do vary from experiment to experiment. Generally speaking, it should be recognized that MIC values often vary +/−2-fold from experiment to experiment. While a single MIC is reported for each compound and each microorganism, the reader should not conclude that each compound was only tested once. Several of the compounds were subjected to multiple tests. The data reported in Table 2 is reflective of the compounds relative activity and different MICs may have been generated on these occasions in line with the guidelines described above.
(§5) The following bacterial strains were used in these MIC determinations: […]

[4] = tested on: AB-3167, clinical isolate of Acinetobacter baumannii; type: cell-based
Method: as §1, §2, §3, §4, §5

[5] = tested on: PA-1646, polymyxin-resistant clinical isolate of Pseudomonas aeruginosa; type: cell-based; conditions: PA-1646, polymyxin-resistant clinical isolate of; remark: listed apart in the source
Method: as §1, §2, §3, §4, §5

[6] = tested on: AB-1649, polymyxin-resistant clinical isolate of Acinetobacter baumannii; type: cell-based; conditions: AB-1649, polymyxin-resistant clinical isolate of
Method: as §1, §2, §3, §4, §5

[7] = tested on: AB-1649, polymyxin-resistant clinical isolate of Acinetobacter baumannii; type: cell-based; conditions: AB-1649, polymyxin-resistant clinical isolate of; remark: listed apart in the source
Method: as §1, §2
AB-1649 is a polymyxin-resistant clinical isolate of Acinetobacter baumannii obtained from JMI labs (www.jmilabs.com);

[8] = tested on: EC-1, mouse virulent strain of Escherichia coli; type: cell-based; conditions: E. coli EC-1; overnight incubation, lower of duplicate values; trifluoroacetate salt (Example 1 and PMB sulfate)
Method: as §1, §2, §3, §4
The following bacterial strains were used in these MIC determinations:
EC-1 is a mouse virulent strain of Escherichia coli.

| Structure (SMILES) | PA-1646 MBC [1] [µg/mL] | CC50 at 24 h [2] [µM] | PA01 MIC [3] [µg/mL] | AB-3167 MIC ([4]; AB-3167, clinical isolate of) [µg/mL] | PA-1646 MIC [5] [µg/mL] | AB-1649 MIC [6] [µg/mL] | AB-1649 MBC [7] [µg/mL] | EC-1 MIC [8] [µg/mL] | AB-3167 MIC ([4]; A. baumannii AB-3167, overnight incubation, lower of duplicate values, trifluoroacetate salt (Example 1 and PMB sulfate)) [µg/mL] |
| --- | --- | --- | --- | --- | --- | --- | --- | --- | --- |
| CC(C)C[C@@H]1NC(=O)[C@@H](Cc2ccccc2)NC(=O)[C@H](CCN)NC(=O)[C@@H](NC(=O)[C@H](CN)NC(=O)[C@@H](NC(=O)[C@H](CCN)NC(=O)c2ccc(C#N)c(-c3ccccc3)c2)[C@@H](C)O)CCNC(=O)[C@H]([C@@H](C)O)NC(=O)[C@H](CCN)NC(=O)[C@H](CCN)NC1=O [Example 2] (X35-[Dab]T[Dap][Dab][Dab][dF]L[Dab][Dab]T; lactam 4-C) | 4 | 39 | 0.25 | 0.25 | 2 | 0.5 | 0.5 | 0.125 | – |
| CC(C)C[C@@H]1NC(=O)[C@@H](Cc2ccccc2)NC(=O)[C@H](CCN)NC(=O)[C@@H](NC(=O)[C@H](CN)NC(=O)[C@@H](NC(=O)[C@H](CCN)NC(=O)c2ccnc(-c3cccc(Cl)c3)c2)[C@@H](C)O)CCNC(=O)[C@H]([C@@H](C)O)NC(=O)[C@H](CCN)NC(=O)[C@H](CCN)NC1=O [Example 3] (X3-[Dab]T[Dap][Dab][Dab][dF]L[Dab][Dab]T; lactam 4-C) | 1 | 34 | 0.5 | 0.25 | 1 | 0.5 | 0.5 | 0.125 | – |
| CC(C)C[C@@H]1NC(=O)[C@@H](Cc2ccccc2)NC(=O)[C@H](CCN)NC(=O)[C@@H](NC(=O)[C@H](CN)NC(=O)[C@@H](NC(=O)[C@H](CCN)NC(=O)c2ccnc(-c3ccccc3Cl)c2)[C@@H](C)O)CCNC(=O)[C@H]([C@@H](C)O)NC(=O)[C@H](CCN)NC(=O)[C@H](CCN)NC1=O [Example 4] (X31-[Dab]T[Dap][Dab][Dab][dF]L[Dab][Dab]T; lactam 4-C) | 16 | 86 | 0.5 | 0.25 | 4 | 1 | 1 | 0.125 | – |
| CC(C)C[C@@H]1NC(=O)[C@@H](Cc2ccccc2)NC(=O)[C@H](CCN)NC(=O)[C@@H](NC(=O)[C@H](CN)NC(=O)[C@@H](NC(=O)[C@H](CCN)NC(=O)c2ccnc(-c3ccccc3F)c2)[C@@H](C)O)CCNC(=O)[C@H]([C@@H](C)O)NC(=O)[C@H](CCN)NC(=O)[C@H](CCN)NC1=O [Example 5] (X7-[Dab]T[Dap][Dab][Dab][dF]L[Dab][Dab]T; lactam 4-C) | 4 | 83 | 0.5 | – | 2 | 1 | 1 | 0.125 | 0.125 |
| CC(C)C[C@@H]1NC(=O)[C@@H](Cc2ccccc2)NC(=O)[C@H](CCN)NC(=O)[C@@H](NC(=O)[C@H](CN)NC(=O)[C@@H](NC(=O)[C@H](CCN)NC(=O)c2ccc3ccccc3c2)[C@@H](C)O)CCNC(=O)[C@H]([C@@H](C)O)NC(=O)[C@H](CCN)NC(=O)[C@H](CCN)NC1=O [Example 6] (2Naphthoyl-[Dab]T[Dap][Dab][Dab][dF]L[Dab][Dab]T; lactam 4-C) | 16 | 51 | 0.5 | 0.25 | 4 | 2 | 2 | 0.125 | – |
| CC(C)C[C@@H]1NC(=O)[C@@H](Cc2ccccc2)NC(=O)[C@H](CCN)NC(=O)[C@@H](NC(=O)[C@H](CN)NC(=O)[C@@H](NC(=O)[C@H](CCN)NC(=O)c2ccnc(-c3cccc(F)c3)c2)[C@@H](C)O)CCNC(=O)[C@H]([C@@H](C)O)NC(=O)[C@H](CCN)NC(=O)[C@H](CCN)NC1=O [Example 7] (X5-[Dab]T[Dap][Dab][Dab][dF]L[Dab][Dab]T; lactam 4-C) | 8 | 41 | 0.5 | 0.25 | 2 | 1 | 1 | 0.125 | – |
| CC(C)C[C@@H]1NC(=O)[C@@H](Cc2ccccc2)NC(=O)[C@H](CCN)NC(=O)[C@@H](NC(=O)[C@H](CN)NC(=O)[C@@H](NC(=O)[C@H](CCN)NC(=O)c2ccc(-c3ccccc3)c(C#N)c2)[C@@H](C)O)CCNC(=O)[C@H]([C@@H](C)O)NC(=O)[C@H](CCN)NC(=O)[C@H](CCN)NC1=O [Example 8] (X32-[Dab]T[Dap][Dab][Dab][dF]L[Dab][Dab]T; lactam 4-C) | 4 | 32 | 1 | 0.25 | 2 | 1 | 1 | 0.5 | – |
| CC(C)C[C@@H]1NC(=O)[C@@H](Cc2ccccc2)NC(=O)[C@H](CCN)NC(=O)[C@@H](NC(=O)[C@H](CN)NC(=O)[C@@H](NC(=O)[C@H](CCN)NC(=O)c2cccc(-c3ccccc3F)c2)[C@@H](C)O)CCNC(=O)[C@H]([C@@H](C)O)NC(=O)[C@H](CCN)NC(=O)[C@H](CCN)NC1=O [Example 9] (X12-[Dab]T[Dap][Dab][Dab][dF]L[Dab][Dab]T; lactam 4-C) | 2 | 24 | 0.5 | 0.25 | 2 | 1 | 2 | 0.25 | – |
| CC(C)C[C@@H]1NC(=O)[C@@H](Cc2ccccc2)NC(=O)[C@H](CCN)NC(=O)[C@@H](NC(=O)[C@H](CN)NC(=O)[C@@H](NC(=O)[C@H](CCN)NC(=O)c2ccc(Cl)c(-c3ccccc3)c2)[C@@H](C)O)CCNC(=O)[C@H]([C@@H](C)O)NC(=O)[C@H](CCN)NC(=O)[C@H](CCN)NC1=O [Example 10] (X30-[Dab]T[Dap][Dab][Dab][dF]L[Dab][Dab]T; lactam 4-C) | 1 | 14 | 1 | 0.5 | 0.5 | 1 | 1 | 0.25 | – |
